The test deals with HT-29 cells. Put plainly: HT-29 necroptosis cell viability assay (TNF-α/SMAC mimetic/zVAD-FMK, CellTiter-Glo). The conditions noted are these: Homo sapiens. The class given is cell-based. The procedure, abridged:
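HT-29 cells (~5,000/well, overnight) in FBS-free McCoy's 5A with TNF-α 10 ng/ml, SMAC mimetic 6 μM and zVAD-FMK 10 μM plus 10-point 1:3 compound titration, 20 h at 37°C. ATP measured by CellTiter-Glo luminescence; IC50 as geometric mean of duplicates.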
Background: ATP-based viability assays read luminescence as a measure of living cells.

[1] abbreviates: HT-29, HT-29 necroptosis cell viability, IC50 class symbols, read-out: Activity.
[2] abbreviates: HT-29, HT-29 necroptosis cell viability assay, class symbols for IC50, read-out: Activity.
The mark [3] stands for this setting: HT-29, HT-29 cells, necroptosis induced by TNF-α/SMAC mimetic/zVAD-FMK, CellTiter-Glo, read-out: Activity (IC50 class).
Setting [4] is: HT-29 cells stimulated with TNF-α (10 ng/ml), SMAC mimetic (6 μM) and zVAD-FMK (10 μM), 20 hours, CellTiter-Glo ATP luminescence, geometric mean IC50 from 10 points, read-out: Activity.

Where two headings read alike, the source gives them in different places.

As to `Cc1cnc(N2CC(C)(C#N)C2)cc1Oc1ccc(-n2ncn(Cc3c(F)cccc3F)c2=O)cc1Cl` [Example 398, 1-(4-(2-chloro-4-(4-(2,6-difluorobenzyl)-5-oxo-4,5-dihydro-1H-1,2,4-triazol-1-yl)phenoxy)-5-methylpyridin-2-yl)-3-methylazetidine-3-carbonitrile], under setting [1], the IC50 is below 100 nM.
As for `Cc1nc(N2CC(C)(C#N)C2)sc1C(O)c1ccc(-n2ncn(Cc3c(F)cccc3F)c2=O)cc1` (centres unmarked) [Example 511, 1-(5-((4-(4-(2,6-difluorobenzyl)-5-oxo-4,5-dihydro-1H-1,2,4-triazol-1-yl)phenyl)(hydroxy)methyl)-4-methylthiazol-2-yl)-3-methylazetidine-3-carbonitrile], under setting [2], the IC50 fell in the range of 1000 to 10000 nM.
As to `Cc1nc(N2CCN(C)CC2)sc1Oc1ccc(-n2ncn(Cc3c(F)cccc3F)c2=O)cc1F` [Example 296, 4-(2,6-difluorobenzyl)-2-(3-fluoro-4-((4-methyl-2-(4-methylpiperazin-1-yl)thiazol-5-yl)oxy)phenyl)-2,4-dihydro-3H-1,2,4-triazol-3-one], the IC50 under setting [1] is below 100 nM.
Turning to `CC(C)Nc1cc(Oc2ccc(-n3ncn(Cc4c(F)cccc4F)c3=O)cc2)ccn1` [Example 345, 4-(2,6-difluorobenzyl)-2-(4-((2-(isopropylamino)pyridin-4-yl)oxy)phenyl)-2,4-dihydro-3H-1,2,4-triazol-3-one], under setting [1], the IC50 was in the range of 100 to 1000 nM.
Turning to `Cc1c(N2CC(C)(NC(=O)OC(C)(C)C)C2)ncn1Cc1ccc(-n2ncn(Cc3c(F)cccc3F)c2=O)cc1` [Example 538, tert-butyl (1-(1-(4-(4-(2,6-difluorobenzyl)-5-oxo-4,5-dihydro-1H-1,2,4-triazol-1-yl)benzyl)-5-methyl-1H-imidazol-4-yl)-3-methylazetidin-3-yl)carbamate], the IC50 under setting [2] is below 100 nM.
In the case of `COC(=O)c1cc(C)n(Cc2ccc(-n3ncn(Cc4c(F)cccc4F)c3=O)cc2F)c1C` [Example 205, methyl 1-(4-(4-(2,6-difluorobenzyl)-5-oxo-4,5-dihydro-1H-1,2,4-triazol-1-yl)-2-fluorobenzyl)-2,5-dimethyl-1H-pyrrole-3-carboxylate], under setting [2], the IC50 is below 100 nM.
For `CCOC(=O)c1c(C)nc(Oc2ccc(-n3ncn(Cc4c(F)cccc4F)c3=O)cc2F)n1C` [Example 182, ethyl 2-(4-(4-(2,6-difluorobenzyl)-5-oxo-4,5-dihydro-1H-1,2,4-triazol-1-yl)-2-fluorophenoxy)-1,4-dimethyl-1H-imidazole-5-carboxylate], under setting [2], the IC50 was 100 to 1000 nM.
Turning to `Cc1nn(-c2ccc(S(=O)(=O)N3CCN(C4CCCCC4)CC3)cc2)c(=O)n1Cc1ccccc1` [Example 620, 4-benzyl-2-(4-((4-cyclohexylpiperazin-1-yl)sulfonyl)phenyl)-5-methyl-2,4-dihydro-3H-1,2,4-triazol-3-one], the IC50 under setting [2] was in the range of 1000 to 10000 nM.
Take `O=C(CC1CC1)Nc1cc(Oc2ccc(-n3ncn(Cc4c(F)cccc4F)c3=O)cc2)ccn1` [Example 520, 2-cyclopropyl-N-[4-[4-[4-[(2,6-difluorophenyl)methyl]-5-oxo-1,2,4-triazol-1-yl]phenoxy]-2-pyridyl]acetamide]: the IC50 under setting [2] fell in the range of 100 to 1000 nM.
In the case of `O=C1CC(n2ncn(Cc3ccccc3)c2=O)CCN1Cc1ccccc1` (centres unmarked) [Example 522, 1-benzyl-4-(4-benzyl-5-oxo-4,5-dihydro-1H-1,2,4-triazol-1-yl)piperidin-2-one], the IC50 under setting [2] was above 10000 nM.
Turning to `O=c1n(Cc2c(F)cccc2F)cnn1-c1ccc(Oc2ccnc(N3C[C@H]4COC[C@H]4C3)c2)cc1` [Example 481, 4-(2,6-difluorobenzyl)-2-(4-((2-((3aR,6aS)-tetrahydro-1H-furo[3,4-c]pyrrol-5(3H)-yl)pyridin-4-yl)oxy)phenyl)-2,4-dihydro-3H-1,2,4-triazol-3-one], the IC50 under setting [2] fell in the range of 100 to 1000 nM.
The same measure, in the same setting: next, `Cc1nc(C(N)=O)sc1Oc1ccc(-n2ncn(Cc3ccccc3F)c2=O)cc1F` [Example 562, 5-(2-fluoro-4-(4-(2-fluorobenzyl)-5-oxo-4,5-dihydro-1H-1,2,4-triazol-1-yl)phenoxy)-4-methylthiazole-2-carboxamide]: below 100 nM; `O=c1n(Cc2c(F)cccc2F)cnn1-c1ccc(Oc2ccnc(N3CC(OCC4CC4)C3)c2)cc1` [Example 483, 2-(4-((2-(3-(cyclopropylmethoxy)azetidin-1-yl)pyridin-4-yl)oxy)phenyl)-4-(2,6-difluorobenzyl)-2,4-dihydro-3H-1,2,4-triazol-3-one]: 100 to 1000 nM.
Regarding `Nc1ccccc1Oc1ccc(-n2nc(Cl)n(Cc3ccccc3)c2=O)cc1` [Example 679, 2-(4-(2-aminophenoxy)phenyl)-4-benzyl-5-chloro-2,4-dihydro-3H-1,2,4-tirazol-3-one], the IC50 under setting [3] was below 100 nM.
In the case of `Cc1nc(C(N)=O)sc1Oc1ncc(-n2nc3n(c2=O)[C@H](c2ccccc2)CC3)cc1F` (single isomer, unassigned) [Example 638], the IC50 under setting [3] is below 100 nM.
For `CCNC(=O)c1nc(C)c(Oc2ccc(-n3ncn(Cc4c(F)cccc4F)c3=O)cc2F)s1` [Example 610, 5-(4-(4-(2,6-difluorobenzyl)-5-oxo-4,5-dihydro-1H-1,2,4-triazol-1-yl)-2-fluorophenoxy)-N-ethyl-4-methylthiazole-2-carboxamide], the IC50 under setting [2] is below 100 nM.
`N#CC1CC(n2cccc(Cc3ccc(-n4ncn(Cc5c(F)cccc5F)c4=O)cc3)c2=O)C1` (centres unmarked) [Example 682, 3-(3-(4-(4-(2,6-difluorobenzyl)-5-oxo-4,5-dihydro-1H-1,2,4-triazol-1-yl)benzyl)-2-oxopyridin-1(2H)-yl)cyclobutane-1-carbonitrile]: the IC50 under setting [3] was in the range of 100 to 1000 nM.
On to `O=c1n(Cc2c(F)cccc2F)cnn1-c1ccc(Oc2ccnc(NCC3CCCO3)c2)cc1` (centres unmarked) [Example 484, 4-(2,6-difluorobenzyl)-2-(4-((2-(((tetrahydrofuran-2-yl)methyl)amino)pyridin-4-yl)oxy)phenyl)-2,4-dihydro-3H-1,2,4-triazol-3-one], for which, under setting [2], the IC50 was in the range of 100 to 1000 nM.
As for `CCOC1CN(c2ncnc(Oc3ccc(-n4ncn(Cc5c(F)cccc5F)c4=O)cc3)c2F)C1` [Example 234, 4-(2,6-difluorobenzyl)-2-(4-((6-(3-ethoxyazetidin-1-yl)-5-fluoropyrimidin-4-yl)oxy)phenyl)-2,4-dihydro-3H-1,2,4-triazol-3-one], the IC50 under setting [1] fell in the range of 100 to 1000 nM.
Take `CC(C)OC1CN(c2cccc(Oc3ccc(-n4ncn(Cc5c(F)cccc5F)c4=O)cc3)n2)C1` [Example 253, 4-(2,6-difluorobenzyl)-2-(4-((6-(3-isopropoxyazetidin-1-yl)pyridin-2-yl)oxy)phenyl)-2,4-dihydro-3H-1,2,4-triazol-3-one]: the IC50 under setting [1] is below 100 nM.
For the compound `Nc1cc(Oc2ccc(-n3ncn(Cc4c(F)cccc4F)c3=O)cc2)ccn1` [Example 310, 2-(4-((2-aminopyridin-4-yl)oxy)phenyl)-4-(2,6-difluorobenzyl)-2,4-dihydro-3H-1,2,4-triazol-3-one], under setting [1], the IC50 lay within 100 to 1000 nM.
In the case of `Cc1nc(N2C[C@@H](O)[C@@H]2C)sc1Oc1ccc(-n2ncn(Cc3c(F)cccc3F)c2=O)cc1` [Example 50, 4-(2,6-difluorobenzyl)-2-(4-((2-((2S,3R)-3-hydroxy-2-methylazetidin-1-yl)-4-methylthiazol-5-yl)oxy)phenyl)-2,4-dihydro-3H-1,2,4-triazol-3-one], the IC50 under setting [4] was below 100 nM.
`Cc1nc(C2(O)COC2)sc1Oc1ccc(-n2ncn(Cc3c(F)cccc3F)c2=O)cc1F` [Example 585, 4-(2,6-difluorobenzyl)-2-(3-fluoro-4-((2-(3-hydroxyoxetan-3-yl)-4-methylthiazol-5-yl)oxy)phenyl)-2,4-dihydro-3H-1,2,4-triazol-3-one]: under setting [2], the IC50 was below 100 nM.
Turning to `Cc1ncsc1Oc1ccc(-n2ncn(Cc3c(F)cccc3F)c2=O)cc1F` [Example 2, 4-(2,6-difluorobenzyl)-2-(3-fluoro-4-((4-methylthiazol-5-yl)oxy)phenyl)-2,4-dihydro-3H-1,2,4-triazol-3-one], the IC50 under setting [4] was below 100 nM.
`Cc1nc(C(C)(C)O)cn1Cc1ccc(-n2ncn(Cc3c(F)cccc3F)c2=O)cc1F` [Example 137, 4-(2,6-difluorobenzyl)-2-(3-fluoro-4-((4-(2-hydroxypropan-2-yl)-2-methyl-1H-imidazol-1-yl)methyl)phenyl)-2,4-dihydro-3H-1,2,4-triazol-3-one]: the IC50 under setting [2] was in the range of 1000 to 10000 nM.
`Cc1nc(CO)cn1Cc1ccc(-n2nc3n(c2=O)C(c2ccccc2)CC3)cc1F` (centres unmarked) [Example 220, 2-(3-fluoro-4-((4-(hydroxymethyl)-2-methyl-1H-imidazol-1-yl)methyl)phenyl)-5-phenyl-2,5,6,7-tetrahydro-3H-pyrrolo[2,1-c][1,2,4]triazol-3-one]: the IC50 under setting [2] is 100 to 1000 nM.
As for `O=c1n(Cc2c(F)cccc2F)cnn1-c1ccc(Oc2ccnc(N3CCOC4(COC4)C3)c2)cc1` [Example 269, 2-(4-((2-(2,5-dioxa-8-azaspiro[3.5]nonan-8-yl)pyridin-4-yl)oxy)phenyl)-4-(2,6-difluorobenzyl)-2,4-dihydro-3H-1,2,4-triazol-3-one], under setting [1], the IC50 lay in the range of 100 to 1000 nM.
As to `Cc1nc(C#N)sc1Oc1ccc(-n2ncn(Cc3ncccc3Cl)c2=O)cc1F` [Example 576, 5-(4-(4-((3-chloropyridin-2-yl)methyl)-5-oxo-4,5-dihydro-1H-1,2,4-triazol-1-yl)-2-fluorophenoxy)-4-methylthiazole-2-carbonitrile], under setting [2], the IC50 is below 100 nM.
Turning to `Cc1nc(C2=CCOC2)sc1Oc1ccc(-n2ncn(Cc3c(F)cccc3F)c2=O)cc1` [Example 632, 4-(2,6-difluorobenzyl)-2-(4-((2-(2,5-dihydrofuran-3-yl)-4-methylthiazol-5-yl)oxy)phenyl)-2,4-dihydro-3H-1,2,4-triazol-3-one], the IC50 under setting [3] is below 100 nM.
